Columns and labels:
[1] = tested on: Puccinia recondita (wheat); assay: Fungicidal test against foliar disease A (foliage spray plus soil drench); type: in vivo; conditions: 10 days
[2] = tested on: Phytophthora infestans (tomato); type: in vivo; conditions: 3 days; for Amount of disease grading, disease B (Table 4): 100 ppm spray and drench
[3] = tested on: Plasmopara viticola (vine); assay: Fungicidal test against foliar disease C (foliage spray plus soil drench); type: in vivo; conditions: 10 days; for Amount of disease grading, disease C (Table 4): 100 ppm spray and drench
Uncinula necator (vine) = assay: Fungicidal test against foliar disease D (foliage spray plus soil drench); type: in vivo; conditions: 10 days; for Amount of disease grading, disease D (Table 4): 100 ppm spray and drench
[4] = tested on: Piricularia oryzae (rice); type: in vivo; conditions: 7 days
[5] = tested on: Tetranychus telarius (red spider mites, adults); assay: Pest toxicity test; type: in vivo; conditions: 0.1% by weight; French bean; 3 days
[6] = tested on: Tetranychus telarius (red spider mites, eggs); assay: Pest toxicity test; type: in vivo; conditions: 0.1% by weight; French bean; 3 days
Aphis fabae = assay: Pest toxicity test; type: in vivo; conditions: 0.1% by weight; broad bean; 2 days
Megoura viceae = assay: Pest toxicity test; type: in vivo; conditions: 0.1% by weight; broad bean; 2 days
[7] = tested on: Aedes aegypti (mosquito larvae); assay: Pest toxicity test; type: in vivo; conditions: 0.01% by weight; water; 1 day
[8] = tested on: Aedes aegypti (mosquito adults); assay: Pest toxicity test; type: in vivo; conditions: 0.01% by weight; plywood; 1 day
[9] = tested on: Musca domestica (houseflies); assay: Pest toxicity test, contact test; type: in vivo; conditions: 0.1% by weight; milk/sugar; 2 days; flies sprayed directly
[10] = tested on: Pieris brassicae (cabbage white caterpillars); assay: Pest toxicity test; type: in vivo; conditions: 0.1% by weight, 2 days
[11] = tested on: Plutella maculipennis (diamond back moth larvae); assay: Pest toxicity test; type: in vivo; conditions: in vivo
[12] = tested on: Phaedon cochleariae (mustard beetles); assay: Pest toxicity test; type: in vivo; conditions: in vivo
[13] = tested on: Meloidogyne incognita (nematodes); assay: Pest toxicity test; type: in vivo; conditions: 0.01% by weight; water; 1 day
[14] = tested on: Agriolimax reticulatus (slugs); assay: Molluscicidal activity test; type: in vivo, Agriolimax reticulatus (Mull); conditions: pellet with 4% by weight; 6 days; 10°C
Method in brief: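 Compound was applied to a calf feeding pellet at 4% by weight active ingredient after 24 h air drying. Two replicates, each of 2 slugs starved 24 h, were kept with a moist filter paper at 10°C, and kill was assessed after 6 days.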

[15] = tested on: larvae of the blowfly (Lucilia serrata); assay: Insecticidal test on blowfly larvae on treated filter paper; type: in vivo; design: key: 5 represents inseccticidal activity equal to that of the known insecticide; 6 represents activity 10 times that of the standard; conditions: scale of 1 to 6; filter paper with horse serum
Lettuce = assay: Herbicidal test, pre- and post-emergence; type: in vivo; conditions: 10 kg/ha; scale 0 to 3 (complete kill)
Tomato = assay: Herbicidal test, pre- and post-emergence; type: in vivo; conditions: 10 kg/ha; scale 0 to 3 (complete kill)
Wheat = assay: Herbicidal test, pre- and post-emergence; type: in vivo; conditions: 10 kg/ha; scale 0 to 3 (complete kill)
Maize = assay: Herbicidal test, pre- and post-emergence; type: in vivo; conditions: 10 kg/ha; scale 0 to 3 (complete kill)
[16] = tested on: Agrobacterium tumifaciens; assay: Antibacterial agar test (B1); type: cell-based; conditions: 50 ppm; 5 days
[17] = tested on: Corynebacterium michiganense; assay: Antibacterial agar test (B2); type: cell-based; conditions: 50 ppm; 5 days
Method in brief: (§1)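 Compound was dissolved or suspended in acetone and mixed into nutrient agar to 50 ppm final, then dried overnight in Petri dishes. Plates were inoculated with the bacteria via multipoint inoculator and antibacterial activity was graded after 5 days.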

Xanthomonas malvacearum = assay: Antibacterial agar test (B3); type: cell-based; conditions: 50 ppm; 5 days
Method in brief: as §1

Erwinia carotovora = assay: Antibacterial agar test (B4); type: cell-based; conditions: 50 ppm; 5 days
Xanthomonas oryzae = type: cell-based; conditions: 50 ppm; 5 days
Pseudomonas syringae = assay: Antibacterial agar test (B6); type: cell-based; conditions: 50 ppm; 5 days
Streptomyces scabies = assay: Antibacterial agar test (B7); type: cell-based; conditions: 50 ppm; 5 days
[18] = tested on: Venturia inaequalis (apple); assay: Fungicidal test against foliar disease G (foliage spray plus soil drench); type: in vivo; conditions: 50 ppm spray + 200 ppm soil drench; 21 days
Description: This Example illustrates the fungicidal properties of compounds used as active ingredients in the compositions of the invention. The compounds were tested against a wide variety of foliar fungal diseases of plants. In the test, a composition comprising an aqueous solution or suspension of the test compound was sprayed on to the foliage or uninfected plants; the soil in which the plants were growing was also drenched with the composition. The compositions used for spraying and drencing contained 100 parts per million (ppm.) of the test compound except where otherwise stated in the table of results below. After spraying and drenching, the plants were then exposed to infection with the diseases it was desired to control, along with control plants not treated with the compound. After a period of days, depending upon the particular disease, the extent of the disease was visually assessed, as a percentage of the disease established upon the control plants which had not been treated with the compound under test, according to the grading scheme below
In Table 2 below the names of the disease is given in the first column, and in the second column is given the time which elapsed between exposing the plants to infection and assessing the amount of disease.

[19] = 50 ppm spray + 200 ppm soil drench

Row | Compound | Amount of disease grading, disease B (Table 4) [2] | Amount of disease grading, disease C (Table 4) [3] | Amount of disease grading, disease D (Table 4) (Uncinula necator (vine)) | Mortality grading (kill) [5] | Mortality grading (kill) [6] | Mortality grading (kill) (Aphis fabae) | Mortality grading (kill) (Megoura viceae) | Mortality grading (kill) [7] | Mortality grading (kill) [8] | Mortality grading (kill), contact test [9] | Mortality grading (kill) [10] | Mortality grading (kill) [11] | Mortality grading (kill) [12] | Mortality grading (kill) [13] | % Kill of slugs [14] | Activity relative to lindane [15] | further results
1 | O=[N+]([O-])c1cc([N+](=O)[O-])c2ccccc2c1Nc1c(Cl)c(F)nc(F)c1Cl [Compound 25, 3,5-Dichloro-2,6-difluoro-4(2,4-dinitro-1-naphthylamino) pyridine] | 3 (0 to 5) | 3 (0 to 5) | 3 (0 to 5) | 0 (O represents less than 30% kill) | 2 (2 represents 60 - 90% kill) | 0 (O represents less than 30% kill) | 0 (O represents less than 30% kill) | 3 (3 represents over 90% kill) | 0 (O represents less than 30% kill) | 0 (O represents less than 30% kill) | 3 (3 represents over 90% kill) | 0 (key: O represents less than 30% kill; 1 represents 30 - 49% kill; 2 represents 60 - 90% kill; 3 represents over 90% kill; C indicates a chemosterilant effect.; A indicates an antifeeding effect.) | 2 (key: O represents less than 30% kill; 1 represents 30 - 49% kill; 2 represents 60 - 90% kill; 3 represents over 90% kill; C indicates a chemosterilant effect.; A indicates an antifeeding effect.) | 3 (3 represents over 90% kill) | 50% | 5 | Amount of disease grading, disease A (Table 4) ([1]; 100 ppm spray and drench): 2 (6 to 25); Amount of disease grading, disease E (Table 4) ([4]; 100 ppm spray and drench): 0 (61 to 100)
2 | N#Cc1cc([N+](=O)[O-])c(Nc2c(Cl)c(F)nc(F)c2Cl)c([N+](=O)[O-])c1 [Compound 34, 4(4-Cyano-2,6-dinitroanilino)-3,5-dichloro-2,6-difluoropyridine] | 3 (0 to 5) | 3 (0 to 5) | 3 (0 to 5) | 3 (3 represents over 90% kill) | 3 (3 represents over 90% kill) | 3 (3 represents over 90% kill) | 0 (O represents less than 30% kill) | 3 (3 represents over 90% kill) | 0 (O represents less than 30% kill) |  | 0 (O represents less than 30% kill) | 2 (key: O represents less than 30% kill; 1 represents 30 - 49% kill; 2 represents 60 - 90% kill; 3 represents over 90% kill; C indicates a chemosterilant effect.; A indicates an antifeeding effect.) | 0 (key: O represents less than 30% kill; 1 represents 30 - 49% kill; 2 represents 60 - 90% kill; 3 represents over 90% kill; C indicates a chemosterilant effect.; A indicates an antifeeding effect.) |  | 100% | 5 | Damage to plants, post-emergence (Lettuce): 0; Damage to plants, pre-emergence (Lettuce): 3; Damage to plants, post-emergence (Tomato): 0; Damage to plants, pre-emergence (Tomato): 2; Damage to plants, post-emergence (Wheat): 0; Damage to plants, pre-emergence (Wheat): 3; Damage to plants, post-emergence (Maize): 0; Damage to plants, pre-emergence (Maize): 3; Antibacterial activity grading B1 [16]: 0 (61 to 100); Antibacterial activity grading B2 [17]: 3 (0 to 5); Antibacterial activity grading B3 (Xanthomonas malvacearum): 2 (6 to 25); Antibacterial activity grading B4 (Erwinia carotovora): 0 (61 to 100); Antibacterial activity grading B5 (Xanthomonas oryzae): 2 (6 to 25); Antibacterial activity grading B6 (Pseudomonas syringae): 3 (0 to 5); Antibacterial activity grading B7 (Streptomyces scabies): 3 (0 to 5)
3 | Fc1nc(F)c(Cl)c(Nc2c(Cl)cccc2Cl)c1Cl [Compound 3, 3,5-Dichloro-2,6-difluoro-4(2,6-dichloroanilino)pyridine] |  |  |  | 0 (O represents less than 30% kill) | 2 (2 represents 60 - 90% kill) | 0 (O represents less than 30% kill) | 0 (O represents less than 30% kill) | 0 (O represents less than 30% kill) | 0 (O represents less than 30% kill) | 0 (O represents less than 30% kill) | 0 (O represents less than 30% kill) | 0 (key: O represents less than 30% kill; 1 represents 30 - 49% kill; 2 represents 60 - 90% kill; 3 represents over 90% kill; C indicates a chemosterilant effect.; A indicates an antifeeding effect.) | 0 (key: O represents less than 30% kill; 1 represents 30 - 49% kill; 2 represents 60 - 90% kill; 3 represents over 90% kill; C indicates a chemosterilant effect.; A indicates an antifeeding effect.) | 2 (2 represents 60 - 90% kill) |  |  | Amount of disease grading, disease A [1, 19]: 0 (61 to 100); Amount of disease grading, disease B [2, 19]: 0 (61 to 100); Amount of disease grading, disease C [3, 19]: 2 (6 to 25); Amount of disease grading, disease D (Uncinula necator (vine); [19]): 3 (0 to 5); Amount of disease grading, disease E [4, 19]: 0 (61 to 100); Amount of disease grading, disease G [18]: 0 (61 to 100)

Source: patent US3965109A, “Certain aryl amino pyridines” (priority 1971, dated 1976)
